Measurements taken from patent US20100305139A1, “METHOD OF TREATING ABNORMAL LIPID METABOLISM” (MITSUBISHI TANABE PHARMA CORPORATION, priority 2005, published 2010).
Each block holds one molecule with its values, some of them ahead of it.

Columns and labels:
ZF rat = experiment: Oral fat loading in ZF rat (abnormal lipid and glucose metabolism); type: in vivo
Experimental: Effect of Compound 3 on Abnormal Lipid Metabolism and Abnormal Glucose Metabolism after Oral Fat Loading in ZF Rat
The test was performed using male ZF rats. The rats were divided into two groups (10 rats/group). Compound 3 (1 mg/kg) or a 0.5% hydroxypropylmethylcellulose solution, which was a vehicle used to dissolve the compound, was administered by gavage to each of the rats. The administered volume was 2 mL/kg for both. At 15 min after the administration, a fat emulsion (main component was soybean oil, Intralipos; Otsuka Pharmaceutical Factory, Inc.) was orally loaded at the rate of 10 mL/kg. Blood samples were sequentially collected, and plasma TG concentration, free fatty acids concentration, glucose concentration and insulin concentration were measured.

fat-loaded ZF rat = experiment: Oral glucose loading in fat-loaded ZF rat; type: in vivo
Experimental: Effect of Compound 3 on Increase in Plasma Glucose after Oral Glucose Loading in Fat-Loaded ZF Rat
The test was performed using male ZF rats. The number of experimental examples was 10 for each group. […] The administered volume was 2 mL/kg for both. At 15 min after the administration, a fat emulsion (main component was soybean oil, Intralipos; Otsuka Pharmaceutical Factory, Inc.) was orally loaded at the rate of […]. Furthermore, at 6 hr after the administration of fat emulsion, a mixed carbohydrate solution of starch, sucrose and lactose (mixing ratio 6:3:1) was orally administered at 3.5 g/kg. The volume administered of each of the fat emulsion and the carbohydrate solution was 10 mL/kg. Blood samples were sequentially collected, and plasma glucose concentration was measured.

Wistar rat = experiment: Fasting blood sugar level in Wistar rat
[1] = test system: rats with type 2 diabetes; conditions: non-patent reference 7; cited from earlier work
[2] = ZF rat, summary statement, dose not given

Structure (SMILES): Br.Cc1cc(N2CCN([C@@H]3CN[C@H](C(=O)N4CCSC4)C3)CC2)n(-c2ccccc2)n1 [compound 1, 3-{(2S,4S)-4-[4-(3-methyl-1-phenyl-1H-pyrazol-5-yl)piperazin-1-yl]pyrrolidin-2-ylcarbonyl}thiazolidine hydrobromide]
blood glucose increase after the fat loading (ZF rat; [2]): suppresses | increase in the plasma TG concentration after fat loading (ZF rat; obese Zucker fatty rat having insulin resistance, summary statement, dose not given): suppresses | blood glucose increase after glucose loading in an oral glucose loading test after fat loading (fat-loaded ZF rat; [2]): markedly suppresses | hypoglycemia (Wistar rat; summary statement, unlike insulin secretagogue, dose not given): does not induce hypoglycemia

Structure (SMILES): Br.Br.Br.Br.Br.Cc1cc(N2CCN([C@@H]3CN[C@H](C(=O)N4CCSC4)C3)CC2)n(-c2ccccc2)n1.Cc1cc(N2CCN([C@@H]3CN[C@H](C(=O)N4CCSC4)C3)CC2)n(-c2ccccc2)n1 [compound 3, 3-{(2S,4S)-4-[4-(3-methyl-1-phenyl-1H-pyrazol-5-yl)piperazin-1-yl]pyrrolidin-2-ylcarbonyl}thiazolidine 2.5 hydrobromide]
increase in the plasma TG concentration after fat loading (ZF rat; male ZF rats, 1 mg/kg by gavage 15 min before oral fat emulsion 10 mL/kg, change from value before fat loading (FIG. 1)): suppressed | increase in the plasma free fatty acids concentration after fat loading (ZF rat; male ZF rats, 1 mg/kg by gavage 15 min before oral fat emulsion 10 mL/kg, change from value before fat loading (FIG. 2)): suppressed | increase in the plasma glucose concentration after fat loading (ZF rat; male ZF rats, 1 mg/kg by gavage 15 min before oral fat emulsion 10 mL/kg, change from value before fat loading (FIG. 3)): suppressed | plasma insulin concentration after fat loading (ZF rat; male ZF rats, 1 mg/kg by gavage 15 min before oral fat emulsion 10 mL/kg, change from value before fat loading (FIG. 4)): transiently increased | increase in the baseline plasma glucose concentration by fat loading (fat-loaded ZF rat; male fat-loaded ZF rats, 1 mg/kg by gavage 15 min before fat emulsion (FIG. 5)): suppressed | increase in the plasma glucose concentration after oral glucose loading (fat-loaded ZF rat; male fat-loaded ZF rats, 1 mg/kg by gavage, mixed carbohydrate 3.5 g/kg orally at 6 hr after fat loading (FIG. 5)): suppressed | fasting plasma glucose concentration (Wistar rat; overnight-fasted male Wistar rats, gavage, dose of 100 mg/kg, maximum change from value before drug administration (FIG. 6)): no effect | fasting insulin concentration (Wistar rat; overnight-fasted male Wistar rats, gavage, dose of 100 mg/kg, maximum change from value before drug administration (FIG. 7)): no effect

plasma glucose concentration (hypoglycemia) (Wistar rat; overnight-fasted male Wistar rats, gavage, nateglinide 10, 30, 100 or 300 mg/kg, maximum change from value before drug administration (FIG. 6)): induced hypoglycemia | plasma insulin concentration (Wistar rat; overnight-fasted male Wistar rats, gavage, nateglinide 10, 30, 100 or 300 mg/kg, maximum change from value before drug administration (FIG. 7)): increased
Structure (SMILES): CC(C)[C@H]1CC[C@H](C(=O)N[C@H](Cc2ccccc2)C(=O)O)CC1 [nateglinide, (−)-N-(trans-4-isopropylcyclohexylcarbonyl)-D-phenylalanine, reference compound]
increase in blood lipid by fat loading [1]: suppresses
